Usually IC50 stands for the concentration that gives 50% inhibition. Higher therefore signals lower potency. The inhibition is the change of the read-out against control, counted positive when it falls. One may read the % Inhibition as the change of the read-out against control, counted positive when it falls. Higher therefore signals a strong effect.

Structures are written as SMILES. Read-outs that look alike come from different tables or passages of the source.

In the experiment the target is T1, FmlHLD (Escherichia coli, UniProt P77588).
T1 construct: 6xHis (C); made in house; host or cells: E. coli C600, periplasm, pTRC99a
T1 sequence (P77588 25-182): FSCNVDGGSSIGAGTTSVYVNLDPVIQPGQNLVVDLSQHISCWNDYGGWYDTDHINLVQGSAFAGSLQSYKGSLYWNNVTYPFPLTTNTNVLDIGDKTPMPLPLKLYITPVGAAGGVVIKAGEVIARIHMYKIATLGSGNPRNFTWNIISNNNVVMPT
The experiment in a line: biochemical. It is filed as binding, E. coli. To be noted: for inhibitory potency against FmlH, in words: ELISA-based competition assay; for PI100 (percent inhibition): galactoside at 100 μM. As for the experimental part:
Thereafter, wells were incubated with 200 μl blocking buffer (PBS+1% BSA) for 2 hours at 23° C., followed by incubation with 100 μl biotinylated FmlHLD diluted in blocking buffer to 20 μg/ml in the presence or absence of the tested compounds for 1 hr at 23° C. After washing 3× with PBS+0.05% TWEEN-20, 100 μl Streptavidin-HRP conjugate (BD Biosciences; 1:2000 dilution in blocking buffer) was added to each well for 1 hr at 23° C. After a final round of washing, plates were developed with 100 μl Tetramethylbenzidine (TMB, BD Biosciences) substrate, quenched within 1-2 min with 50 μl […], and absorbance measured at 450 nm.
Select top hit compounds and few low-scoring analogs from the virtual screening, as well as synthetic galactosides, were tested in the ELISA-based competition assay for their ability to inhibit binding of FmlHLD to ds-BSM. The ELISA assay was performed using the protocol described in Example 18. […] All compounds were tested at 100 μM; a subset was tested at 10 μM; and the strongest subset was additionally tested at 1 μM. […] Percent inhibition (PI) values are reported as the mean with standard error of the mean for galactosides tested at 100 μM (PI100), 10 μM (PI10), and 1 μM (PI1) in the ELISA-based competition assay. […] The “thio” designation indicates a sulfur linkage between the sugar and the aglycone group, the “phospho” designation indicates a phosphate group attached the C6-hydroxyl group on the sugar, and the “uro” designation indicates galacturonide as the sugar.
The ELISA assay was performed using the protocol described in Example 18. All compounds were tested at 1 μM and a subset was additionally tested at 100 nM. Average percent inhibition (PI) values are reported for compounds tested at 1 μM (PI1) and 100 nM (PI0.1).
Briefly, 1 μg bovine submaxillary mucin (Sigma) in 100 uL PBS were incubated with Immulon 4HBX 96-well plates overnight prior to treatment with 1 mU Arthrobacter ureafaciens sialidase for 1 hour at 37° C. to remove terminal sialic acid sugars. Wells were then blocked with 200 μL PBS+1% BSA for 2 hours at room temperature. Biotinylated FmlH^LD was diluted to 20 μg/mL in blocking buffer and incubated in the presence or absence of compounds serially diluted 2× down eight rows for 1 hour at room temperature. Wells were washed three times with PBS 0.05% TWEEN-20 then incubated with 100 μL of streptavidin-HRP conjugate (BD Biosciences; 1:2,000 dilution in blocking buffer) for one hour. After three additional PBS+0.05% TWEEN washes, plates were developed with 100 μL of tetramethylbenzidine (BD Biosciences) substrate and quenched with 50 μL of 1 M H2SO4. Total bound portion concentration was measured by the absorbance at 450 nm. IC50s were determined using the Graphpad Prism software.
The compounds synthesized herein were tested in the ELISA-based competition assay for their ability to inhibit binding of FmlHLD to ds-BSM. The ELISA assay was performed using the protocol described in Example 18. Compounds were tested at […], 1 μM, and 100 nM. as indicated on the table. […] ND means the corresponding value was not determined for this summary (but may be available elsewhere in the Examples).
(An ELISA detects its analyte on a solid surface through an enzyme-linked reagent.)

The mark [1] stands for this setting: read-out: % Inhibition at [μM] [1], compound at 1 μM, inhibition of FmlHLD binding to ds-BSM.
[2] abbreviates: read-out: PI(1) (average percent inhibition), compound at 1 μM, Table 4.
Where [3] appears, read: read-out: PI10 (percent inhibition), galactoside at 10 μM, mean with standard error of the mean.
The mark [4] stands for this setting: read-out: PI100 (percent inhibition), galactoside at 100 μM, mean with standard error of the mean.
Where [5] appears, read: read-out: % Inhibition at [μM] [10], compound at 10 μM, inhibition of FmlHLD binding to ds-BSM.
Where [6] appears, read: read-out: % Inhibition at [μM] [100], compound at 100 μM, inhibition of FmlHLD binding to ds-BSM.
Setting [7] is: mean with standard error of the mean, 100 µM.
Where [8] appears, read: IC50 (μM), Table 5, Gal and GalNAc inhibition of FmlH.
Where [9] appears, read: read-out: % Inhibition at [μM] [0.1], compound at 0.1 μM (100 nM), inhibition of FmlHLD binding to ds-BSM.
[10] abbreviates: read-out: PI (0.1) (average percent inhibition), compound at 100 nM, Table 4.
Setting [11] is: IC50, inhibition of FmlHLD binding to ds-BSM.

For `CC(=O)N[C@@H]1[C@H](Oc2cccc(C)c2-c2cccc(NS(=O)(=O)N(C)C)c2)OC(CO)[C@H](O)[C@@H]1O` (stereo partly drawn) [Compound 3087, N-((2S,3S,4R,5R)-2-((3′-((N,N-dimethylsulfamoyl)amino)-6-methyl-[1,1′-biphenyl]-2-yl)oxy)-4,5-dihydroxy-6-(hydroxymethyl)tetrahydro-2H-pyran-3-yl)acetamide], the “inhibitory potency against FmlH, in words” value (“inhibitory potency” for short) was “retain the same activity as the methyl sulfonamides”. Besides, the IC50 (IC50 (μM), Table 6, sulfonamides 3078-3090) turned out to be 0.13 µM.

In the case of `CC(C)(C)NC(=O)CN(C(=O)c1cccc2cccnc12)[C@@H]1O[C@H](CO)[C@H](O)[C@H](O)[C@H]1O` [AM1181, N-(2-(tert-butylamino)-2-oxoethyl)-N-((2R,3R,4S,5R,6R)-3,4,5-trihydroxy-6-(hydroxymethyl)tetrahydro-2H-pyran-2-yl)quinoline-8-carboxamide], the inhibition at 1 µM was found to be 10.8% under setting [1] and 10.8% under setting [2].

For `O=[N+]([O-])c1ccccc1O[C@@H]1O[C@H](COP(=O)(O)O)[C@H](O)[C@H](O)[C@H]1O` [ONPG-6P, reference compound], the “% Inhibition at [μM] [100]” value (compound at 100 μM, inhibition of FmlHLD binding to ds-BSM) was found to be 1.31%.

Take `OC[C@H]1O[C@H](Oc2ccc(-c3ccccc3)cc2)[C@H](O)[C@@H](O)[C@H]1O` [Compound 32α, [1,1′-biphenyl]-4-yl α/β-D-galactopyranoside]: the inhibition at 10 µM under setting [3] was 22.6 ± 3.9%. For the same compound, under setting [4], the inhibition at 100 µM amounted to 86.5 ± 1.7%.

Take `O=[N+]([O-])c1ccc(S[C@@H]2O[C@H](CO)[C@H](O)[C@H](O)[C@H]2O)cc1` [PNPTG, reference compound]: the inhibition at 10 µM under setting [5] was 17%. Under setting [6], the inhibition at 100 µM is 72.5%.

In the case of `OC[C@H]1O[C@@H](Oc2ccccc2-c2ccccc2)[C@H](O)[C@@H](O)[C@H]1O` [Compound 28β, [1,1′-biphenyl]-2-yl α/β-D-galactopyranoside], the “PI100 (percent inhibition)” value under setting [7] is reported as 91.1 ± 1.2%. Also, for the setting “read-out: PI1 (percent inhibition), galactoside at 1 μM, mean with standard error of the mean”, the inhibition at 1 µM was 8.1 ± 6%. For the same compound, under setting [3], the inhibition at 10 µM turned out to be 31 ± 2.1%. The inhibition at 100 µM under setting [4] is 91%.

`COc1ccc(OS(C)(=O)=O)cc1-c1ccccc1O[C@@H]1O[C@H](CO)[C@H](O)[C@H](O)[C@H]1NC(C)=O` [AM2077, 2′-(((2S,3R,4R,5R,6R)-3-acetamido-4,5-dihydroxy-6-(hydroxymethyl)tetrahydro-2H-pyran-2-yl)oxy)-6-methoxy-[1,1′-biphenyl]-3-yl methanesulfonate]: the “inhibitory potency” value is given as “equal or slightly reduced potency”. Under setting [8], this compound showed an IC50 of 3.72 µM. The inhibition at 0.1 µM under setting [9] was determined as 2.5%. Moreover, the inhibition at 1 µM under setting [1] amounted to 0%. Also, under setting [10], the inhibition at 0.1 µM was found to be 2.5%. In addition, the inhibition at 1 µM under setting [2] stood at 0%.

On to `CC(=O)N[C@H]1[C@@H](Oc2ccc([N+](=O)[O-])cc2)O[C@H](CO)[C@H](O)[C@@H]1O[C@@H]1O[C@H](CO)[C@H](O)[C@H](O)[C@H]1O` [Compound 33, p-nitrophenyl Gal-β1-3-GalNAc, reference compound], for which the “PI100 (percent inhibition)” value (mean with standard error of the mean) was 15.3 ± 3.1%.

Take `CC(=O)N[C@H]1[C@H](Oc2ccccc2-c2cccc(O)c2)O[C@H](CO)[C@H](O)[C@@H]1O` [AM2021, N-((2S,3R,4R,5R,6R)-4,5-dihydroxy-2-((3′-hydroxy-[1,1′-biphenyl]-2-yl)oxy)-6-(hydroxymethyl)tetrahydro-2H-pyran-3-yl)acetamide]: the “inhibitory potency” value is “equal or slightly reduced potency”. The compound also had an IC50 under setting [8] of 0.7 µM. Under setting [1], the inhibition at 1 µM is 17.7%. Also, the inhibition at 1 µM under setting [2] amounted to 17.7%.

Take `OC[C@H]1O[C@H](Oc2ccccc2-c2ccccc2)[C@H](O)[C@@H](O)[C@H]1O` [Compound 28α, [1,1′-biphenyl]-2-yl α/β-D-galactopyranoside]: under setting [4], the inhibition at 100 µM came out at 19.2 ± 3%.

On to `OC[C@H]1O[C@@H](Oc2cccc(-c3ccccc3)c2)[C@H](O)[C@@H](O)[C@H]1O` [Compound 114af2], for which the inhibition at 10 µM under setting [5] was found to be 7.8%. For the same compound, under setting [6], the inhibition at 100 µM came out at 56.9%.

The compound `CC(=O)N[C@H]1[C@H](Oc2ccccc2-c2cc(C(=O)O)cc([N+](=O)[O-])c2)O[C@H](CO)[C@H](O)[C@@H]1O` [AM2119] showed a half-maximal inhibitory concentration (IC50) under setting [11] of 1.72 µM.

Take `OC[C@H]1O[C@@H](Oc2ccccc2Cl)[C@H](O)[C@@H](O)[C@H]1O` [Compound 154c]: the inhibition at 1 µM under setting [1] is 7.95%. Also, the inhibition at 10 µM under setting [5] was determined as 20.7%. Moreover, under setting [6], the inhibition at 100 µM is 90.5%.

On to `CCOC(=O)c1ccc(OC)c(-c2ccccc2O[C@@H]2O[C@H](CO)[C@H](O)[C@H](O)[C@H]2NC(C)=O)c1` [AM2053, ethyl 2′-(((2S,3R,4R,5R,6R)-3-acetamido-4,5-dihydroxy-6-(hydroxymethyl)tetrahydro-2H-pyran-2-yl)oxy)-6-methoxy-[1,1′-biphenyl]-3-carboxylate], for which the inhibition at 0.1 µM runs as follows: under setting [9], 0%; under setting [10], 0%. In addition, the inhibition at 1 µM by setting is: under setting [1], 13.7%; under setting [2], 13.7%.

In the case of `CC(=O)N[C@H]1[C@H](Oc2ccccc2-c2cccc(C(=O)N(C)C)c2)O[C@H](CO)[C@H](O)[C@@H]1O` [AM2032, 2′-(((2S,3R,4R,5R,6R)-3-acetamido-4,5-dihydroxy-6-(hydroxymethyl)tetrahydro-2H-pyran-2-yl)oxy)-N,N-dimethyl-[1,1′-biphenyl]-3-carboxamide], the “inhibitory potency” value is on record as “equal or slightly reduced potency”. The compound further returned an IC50 under setting [8] of 3.13 µM. In addition, the inhibition at 1 µM under setting [1] was -3.61%. In addition, under setting [2], the inhibition at 1 µM was -3.61%.

`OC[C@H]1O[C@@H](Oc2ccccc2-c2ccccc2)[C@H](O)[C@@H](O)[C@H]1O` [Compound 113f2]: the inhibition at 1 µM under setting [1] worked out at 8.1%. Also, the inhibition at 10 µM under setting [5] was 31%. The inhibition at 100 µM under setting [6] is 91.1%.

On to `CC(=O)N[C@H]1[C@H](Oc2ccccc2-c2cc(NS(=O)(=O)C(F)(F)F)ccc2F)O[C@H](CO)[C@H](O)[C@@H]1O` [AM2116], for which the concentration for half-maximal inhibition (IC50) under setting [11] was 3.07 µM.

For `OC[C@H]1O[C@@H](Oc2ccc3ccccc3c2)[C@H](O)[C@@H](O)[C@H]1O` [2-napthyl Gal, reference compound], under setting [5], the inhibition at 10 µM was 14.6%. In addition, the inhibition at 100 µM under setting [6] came to 78.8%.

Consider `OC[C@H]1O[C@@H](Oc2c[nH]c3cc(Cl)ccc23)[C@H](O)[C@@H](O)[C@H]1O` [Compound 17β], for which, under setting [7], the “PI100 (percent inhibition)” value is listed as 41.2 ± 3.4%. For the same compound, the inhibition at 100 µM under setting [4] was found to be 41%.

As to `OC[C@H]1O[C@@H](Oc2cccc3ccccc23)[C@H](O)[C@@H](O)[C@H]1O` [Compound 115af2], the inhibition at 100 µM under setting [6] is 45.9%.

With `COc1ccc(O)cc1-c1ccccc1O[C@@H]1O[C@H](CO)[C@H](O)[C@H](O)[C@H]1NC(C)=O` [AM2073, N-((2S,3R,4R,5R,6R)-4,5-dihydroxy-2-((5′-hydroxy-2′-methoxy-[1,1′-biphenyl]-2-yl)oxy)-6-(hydroxymethyl)tetrahydro-2H-pyran-3-yl)acetamide], the “inhibitory potency” value is reported as “equal or slightly reduced potency”. The IC50 under setting [8] was 0.51 µM. Moreover, the inhibition at 0.1 µM under setting [9] was 7.1%. Also, the inhibition at 1 µM under setting [1] amounted to 34.2%. Besides, the inhibition at 0.1 µM under setting [10] was determined as 7.1%. Besides, the inhibition at 1 µM under setting [2] was determined as 34.2%.
